According to patent US20220153741A1, “HETEROCYCLIC COMPOUNDS AS INHIBITORS OF KRAS G12C” (Guangdong Newopp Biopharmaceuticals Co., Ltd., priority 2019, published 2022):
Where two headings read alike, the source gives them in different places.

Key:
[1] = tested on: NCI-H358 (H358, KRAS G12C) cancer cell line; assay: 3D proliferation assay, NCI-H358 (CellTiter-Glo); type: cell-based; conditions: 96-well spheroid plate, 4 days
Method: (§1) 3D proliferation assay: NCI-H358 (H358, KRAS G12C) and LS513 (KRAS G12D) cancer cell lines were obtained from ATCC (American Type Culture Collection, VA). Cells were plated in 96-well spheroid plate (CORNING INC, NY)) in RPMI-1640 with 10% FBS. Compounds (11-point dilutions) and DMSO were added to the wells and incubated with cells for 4 days at 37° C. Cell viability was then determined by CellTiter-Glo (Promega, WI). IC50 values of compounds were determined as the concentration of 50% inhibition of cell viability compared to DMSO treated cells (A: IC50<0.1 μM; B: IC50 between 0.1 μM and 1 μM; C: IC50 between 1 μM and 10 μM; D: >10 μM; ND: not determined).

[2] = tested on: LS513 (KRAS G12D) cancer cell line; assay: 3D proliferation assay, LS513 (CellTiter-Glo); type: cell-based; conditions: 96-well spheroid plate, 4 days
Method: as §1

[3] = tested on: pERK1/2 in NCI-H358 cells; assay: Phospho-ERK (pERK) assay in NCI-H358 cells; type: cell-based; conditions: 3 hours compound treatment, pERK1/2 antibody fluorescence
Method: Phospho-ERK (pERK) assay: NCI-H358 cells were seeded in 96-well plates (Greiner) in RPMI-1640 with 10% FBS 16 hours prior to compound treatment. Serial dilution of compounds was made and added to wells, and then incubated at 37° C. for 3 hours. After the treatment, cells were fixed with 3.7% formaldehyde (VWR) for 20 min at RT, followed by being permeabilized with ice-cold methanol at −20° C. for 20 min. The methanol was then dumped and replaced with Intercept® (PBS) Blocking Buffer (LiCOR) supplemented with 0.05% Tween-20 and incubated at RT for 1 hour with gentle rocking. The blocking buffer was then replaced with the blocking buffer containing pERK1/2 antibody (Cell Signaling) and incubated at 4° C. overnight with gentle rocking. The plate was washed 5 times with 1×PBS+0.1% Tween-20. The blocking buffer containing LiCOR IRDye 680RD secondary antibody (LiCOR,) was then added and incubated for 1 hour at RT with gentle rocking. After washing 5 times with 1×PBS+0.1% Tween-20, the plate was read using CLARIOstar plate reader (BMG LABTECH GmbH). IC50 values were determined as the concentration of 50% inhibition of the fluorescence signal compared to DMSO treated cells (A: IC50<0.1 μM; B: IC50 between 0.1 μM and 1 μM; C: IC50 between 1 μM and 10 μM; D: >10 μM; ND: not determined).

[4] = amide bond

| Compound | IC50 ([1]; Homo sapiens, NCI-H358, 96 h) [nM] | IC50 ([2]; Homo sapiens, LS-513, 96 h) [nM] | IC50 ([3]; Homo sapiens, NCI-H358, 3 h) [nM] | other results |
| --- | --- | --- | --- | --- |
| C=CC(=O)N1CCN(c2nc(=O)n3c4nc(c(F)cc24)-c2c(F)cccc2NCCCN(C)c2cccc(C(C)C)c2-3)[C@@H](C)C1 [Example 28, (S)-2^4-(4-acryloyl-2-methylpiperazin-1-yl)-2^6,3^6-difluoro-1^6-isopropyl-8-methyl-2^1,2^2-dihydro-4,8-diaza-2(1,7)-pyrido[2,3-d]pyrimidina-1,3(1,2)-dibenzenacyclooctaphan-2^2-one] | < 100 | > 10000 | 100 to 1000 | – |
| CC(C)c1cccc2c1-n1c(=O)[nH]c(=O)c3cc(F)c(nc31)-c1c(F)cccc1NC(=O)CN2 | – | – | – | ring closure, yield of all isomers ([4]; from CC(C)c1cccc(NCC(=O)O)c1-n1c(=O)[nH]c(=O)c2cc(F)c(-c3c(N)cccc3F)nc21, TCFH/N-methylimidazole/pyridine, MeCN/DMF (1:1), 66.0 mM, 11.0 h): 32.7% |
| CC(C)c1nccc2c1-n1c(=O)nc(O)c3cc(F)c(nc31)-c1c(F)cccc1NC(=O)CS2 | – | – | – | ring closure, yield of all isomers ([4]; from CC(C)c1nccc(SCC(=O)OC(C)(C)C)c1-n1c(=O)nc(O)c2cc(F)c(-c3c(N)cccc3F)nc21, TCFH/N-methylimidazole, DMF, 7.2 mM, 25.0 °C, 1.0 h, 2 steps): 44.4% |
| (S)-2^4-(4-acryloyl-2-methylpiperazin-1-yl)-2^6,3^6-difluoro-1^2-isopropyl-2^1,2^2-dihydro-8-thia-4-aza-2(1,7)-pyrido[2,3-d]pyrimidina-1(3,4)-pyridina-3(1,2)-benzenacyclooctaphan-2^2-one [Example 8] | – | – | – | IC50 [1]: < 100 nM; IC50 [2]: > 10000 nM; IC50 [3]: < 100 nM |
| C=CC(=O)N1CCN(c2nc(=O)n3c4nc(c(F)cc24)-c2c(F)cccc2NCCSc2ccnc(C(C)C)c2-3)[C@@H](C)C1 [Example 9, (S)-2^4-(4-acryloyl-2-methylpiperazin-1-yl)-2^6,3^6-difluoro-1^2-isopropyl-2^1,2^2-dihydro-7-thia-4-aza-2(1,7)-pyrido[2,3-d]pyrimidina-1(3,4)-pyridina-3(1,2)-benzenacycloheptaphan-2^2-one] | < 100 | > 10000 | < 100 | – |
| C=CC(=O)N1CCN(c2nc(=O)n3c4nc(c(F)cc24)-c2c(F)cccc2N(C)CCCc2cccc(C(C)C)c2-3)[C@@H](C)C1 [Example 19, (S)-2^4-(4-acryloyl-2-methylpiperazin-1-yl)-2^6,3^6-difluoro-1^6-isopropyl-4-methyl-2^1,2^2-dihydro-4-aza-2(1,7)-pyrido[2,3-d]pyrimidina-1,3(1,2)-dibenzenacycloheptaphan-2^2-one] | < 100 | 1000 to 10000 | < 100 | – |
| C=CC(=O)N1CCN(c2nc(=O)n3c4nc(c(F)cc24)-c2c(F)cccc2NC(=O)CCc2ccnc(C(C)C)c2-3)[C@@H](C)C1 [Example 1, (S)-2^4-(4-Acryloyl-2-methylpiperazin-1-yl)-2^6,3^6-difluoro-1^2-isopropyl-2^1,2^2-dihydro-4-aza-2(1,7)-pyrido[2,3-d]pyrimidina-1(3,4)-pyridina-3(1,2)-benzenacycloheptaphane-2^2,5-dione] | < 100 | > 10000 | 100 to 1000 | – |
| C=CC(=O)N1CCN(c2nc(=O)n3c4nc(c(F)cc24)-c2c(F)cccc2N(C(=O)C(C)(C)O)CCCc2ccnc(C(C)C)c2-3)[C@@H](C)C1 [Example 15, (S)-2^4-(4-acryloyl-2-methylpiperazin-1-yl)-2^6,3^6-difluoro-4-(2-hydroxy-2-methylpropanoyl)-1^2-isopropyl-2^1,2^2-dihydro-4-aza-2(1,7)-pyrido[2,3-d]pyrimidina-1(3,4)-pyridina-3(1,2)-benzenacycloheptaphan-2^2-one] | 100 to 1000 | > 10000 | 100 to 1000 | – |
| C=CC(=O)N1CCN(c2nc(=O)n3c4nc(c(F)cc24)-c2c(F)cccc2N(C)CCCc2ccnc(C(C)C)c2-3)[C@@H](C)C1 [Example 4, (S)-2^4-(4-acryloyl-2-methylpiperazin-1-yl)-2^6,3^6-difluoro-1^2-isopropyl-4-methyl-2^1,2^2-dihydro-4-aza-2(1,7)-pyrido[2,3-d]pyrimidina-1(3,4)-pyridina-3(1,2)-benzenacycloheptaphan-2^2-one] | < 100 | > 10000 | < 100 | – |
| C=CC(=O)N1CCN(c2nc(=O)n3c4nc(c(F)cc24)-c2c(F)cccc2NCCCNc2cccc(C(C)C)c2-3)[C@@H](C)C1 [Example 22, (S)-2^4-(4-acryloyl-2-methylpiperazin-1-yl)-2^6,3^6-difluoro-1^6-isopropyl-2^1,2^2-dihydro-4,8-diaza-2(1,7)-pyrido[2,3-d]pyrimidina-1,3(1,2)-dibenzenacyclooctaphan-2^2-one] | < 100 | 100 to 1000 | 100 to 1000 | – |
| C=CC(=O)N1CCN(c2nc(=O)n3c4nc(c(F)cc24)-c2c(F)cccc2NCCCc2ccnc(C(C)C)c2-3)[C@@H](C)C1 (single isomer, unassigned) [Example 2B] | – | – | – | IC50 [1]: 100 to 1000 nM; IC50 [2]: > 10000 nM; IC50 [3]: 100 to 1000 nM |
| CC(C)c1nccc2c1-n1c(=O)nc(O)c3cc(F)c(nc31)-c1c(F)cccc1NC(=O)CC2 | – | – | – | ring closure, yield of all isomers ([4]; from CC(C)c1nccc(CCC(=O)O)c1-n1c(=O)nc(O)c2cc(F)c(-c3c(N)cccc3F)nc21, TCFH/NMI, DMF, 37.0 mM, 25.0 °C, 1.0 h): 46.7% |
| C=CC(=O)N1CCN(c2nc(=O)n3c4nc(c(F)cc24)-c2c(Cl)cccc2NCCCc2ccnc(C(C)C)c2-3)[C@@H](C)C1 [Example 10, (S)-2^4-(4-acryloyl-2-methylpiperazin-1-yl)-3^6-chloro-2^6-fluoro-1^2-isopropyl-2^1,2^2-dihydro-4-aza-2(1,7)-pyrido[2,3-d]pyrimidina-1(3,4)-pyridina-3(1,2)-benzenacycloheptaphan-2^2-one] | < 100 | > 10000 | < 100 | – |
| CC(C)c1nccc2c1-n1c(=O)[nH]c(=O)c3cc(F)c(nc31)-c1c(F)cccc1NC(=O)CCS2 | – | – | – | ring closure, yield of all isomers ([4]; from CC(C)c1nccc(SCCC(=O)O)c1-n1c(=O)[nH]c(=O)c2cc(F)c(-c3c(N)cccc3F)nc21, T3P, DCE, 58.3 mM, 55.0 °C, 16.0 h): 37.4% |
| C=CC(=O)N1C[C@H](C)N(c2nc(=O)n3c4nc(c(F)cc24)-c2c(F)cccc2NCCCc2ccnc(C(C)C)c2-3)C[C@H]1C [Example 7B, 2^4-((2S,5R)-4-acryloyl-2,5-dimethylpiperazin-1-yl)-2^6,3^6-difluoro-1^2-isopropyl-2^1,2^2-dihydro-4-aza-2(1,7)-pyrido[2,3-d]pyrimidina-1(3,4)-pyridina-3(1,2)-benzenacycloheptaphan-2^2-one] | – | – | – | IC50 [1]: < 100 nM; IC50 [2]: > 10000 nM; IC50 [3]: < 100 nM |
| C=CC(=O)N1CCN(c2nc(=O)n3c4nc(c(F)cc24)-c2c(F)cccc2NCCCc2ccnc(C(C)C)c2-3)[C@@H](C)C1 (single isomer, unassigned) [Example 2A] | – | – | < 100 | IC50 [1]: < 100 nM; IC50 [2]: > 10000 nM |
| C=CC(=O)N1C[C@H](C)N(c2nc(=O)n3c4nc(c(F)cc24)-c2c(F)cccc2NCCCc2cccc(C(C)C)c2-3)C[C@H]1C [Example 20, 2^4-((2S,5R)-4-acryloyl-2,5-dimethylpiperazin-1-yl)-2^6,3^6-difluoro-1^6-isopropyl-2^1,2^2-dihydro-4-aza-2(1,7)-pyrido[2,3-d]pyrimidina-1,3(1,2)-dibenzenacycloheptaphan-2^2-one] | < 100 | > 10000 | < 100 | – |
| C=CC(=O)N1CCN(c2nc(=O)n3c4nc(c(F)cc24)-c2c(F)cccc2NCCCc2cccc(C(C)C)c2-3)[C@@H](C)C1 [Example 17, (S)-2^4-(4-acryloyl-2-methylpiperazin-1-yl)-2^6,3^6-difluoro-1^6-isopropyl-2^1,2^2-dihydro-4-aza-2(1,7)-pyrido[2,3-d]pyrimidina-1,3(1,2)-dibenzenacycloheptaphan-2^2-one] | < 100 | 1000 to 10000 | 100 to 1000 | – |
| C=CC(=O)N1C[C@H](C)N(c2nc(=O)n3c4nc(c(F)cc24)-c2c(F)cccc2NCCCc2ccnc(C(C)C)c2-3)C[C@H]1C [Example 7A, 2^4-((2S,5R)-4-acryloyl-2,5-dimethylpiperazin-1-yl)-2^6,3^6-difluoro-1^2-isopropyl-2^1,2^2-dihydro-4-aza-2(1,7)-pyrido[2,3-d]pyrimidina-1(3,4)-pyridina-3(1,2)-benzenacycloheptaphan-2^2-one] | 100 to 1000 | > 10000 | 100 to 1000 | – |
